Assay results published in ChEMBL document CHEMBL4825708 (J Med Chem, 2021).
Converted amounts (≈) assume the structure as drawn.

Assays:
[1] = biological target: Nav1.5 (Homo sapiens, UniProt Q14524); test: Inhibition of human Nav1.5 expressed in CHO cells at 10 uM by QPatch HT assay; conditions: CHO cells expressing human Nav1.5
[2] = Distribution coefficient, logD of the compound at pH 7.4; conditions: octanol/water
[3] = Apparent permeability in MDCK cells across apical to basolateral side at 10 uM incubated for 3 hrs by LC-MS/MS analysis; conditions: dog
[4] = Half life in Beagle dog at 1 mg/kg, iv or po measured after 0.033 to 24 hrs by LC/MS/MS analysis; conditions: in vivo
[5] = biological target: CYP2D6 (Homo sapiens, UniProt P10635); test: Time dependent inhibition of CYP2D6 in human liver microsomes using dextromethorphan as substrate incubated for 10 mins by LC-MS/MS analysis
[6] = in vitro; conditions: human, microsomes
[7] = in vivo; conditions: beagle, dog, iv, 1 mg/kg
[8] = system: MCF7; test: cells; conditions: Homo sapiens, MCF7, 72 h
Description: Antiproliferative activity against human MCF-7 cells incubated for 72 hrs by Cell-titer Glo assay

[9] = biological target: Cytochrome P450 2C19 (Homo sapiens, UniProt P33261); test: Reversible inhibition of CYP2C19 in human liver microsomes using (S)-Mephenytoin as substrate preincubated for 40 mins followed by NADPH addition by LC/MS/MS analysis
[10] = biological target: Cytochrome P450 2C9 (Homo sapiens, UniProt P11712); test: Reversible inhibition of CYP2C9 in human liver microsomes using (s)-warfarin as substrate preincubated for 30 mins followed by NADPH addition by LC/MS/MS analysis
[11] = in vivo; conditions: Sprague-Dawley, rat, po, 100 mg/kg
[12] = biological target: T1, CYP3A4 (Homo sapiens, UniProt P08684); test: Time dependent inhibition of CYP3A4 in human liver microsomes using midazolam as substrate incubated for 10 mins by LC-MS/MS analysis
[13] = in vivo; conditions: cynomolgus monkey, iv, 1 mg/kg
[14] = in vitro; conditions: dog, dog hepatocytes
[15] = Volume of distribution at steady state in Sprague-Dawley rat at 1 mg/kg, iv or po measured after 0.033 to 24 hrs by LC/MS/MS analysis; conditions: in vivo
[16] = biological target: CYP2C9 (Homo sapiens, UniProt P11712); test: Time dependent inhibition of CYP2C9 in human liver microsomes using s-warfarin as substrate incubated for 30 mins by LC-MS/MS analysis
[17] = biological target: T1, CYP3A4; test: Time dependent inhibition of CYP3A4 in human liver microsomes using testosterone as substrate incubated for 10 mins by LC-MS/MS analysis
[18] = in vitro; conditions: rat, hepatocytes
[19] = in vitro; conditions: cynomolgus monkey, cynomolgus monkey hepatocytes
[20] = in vitro; conditions: mouse, mouse liver microsomes
[21] = in vivo; conditions: Sprague-Dawley, rat, iv, 1 mg/kg
[22] = biological target: Cytochrome P450 2D6 (Homo sapiens, UniProt P10635); test: Reversible inhibition of CYP2D6 in human liver microsomes using dextromethorphan as substrate preincubated for 10 mins followed by NADPH addition by LC/MS/MS analysis
[23] = in vitro; conditions: dog, dog liver microsomes
[24] = biological target: T2, CYP1A2 (Homo sapiens, UniProt P05177); test: Time dependent inhibition of CYP1A2 in human liver microsomes using phenacetin as substrate incubated for 30 mins by LC-MS/MS analysis
T2 sequence (P05177 whole entry): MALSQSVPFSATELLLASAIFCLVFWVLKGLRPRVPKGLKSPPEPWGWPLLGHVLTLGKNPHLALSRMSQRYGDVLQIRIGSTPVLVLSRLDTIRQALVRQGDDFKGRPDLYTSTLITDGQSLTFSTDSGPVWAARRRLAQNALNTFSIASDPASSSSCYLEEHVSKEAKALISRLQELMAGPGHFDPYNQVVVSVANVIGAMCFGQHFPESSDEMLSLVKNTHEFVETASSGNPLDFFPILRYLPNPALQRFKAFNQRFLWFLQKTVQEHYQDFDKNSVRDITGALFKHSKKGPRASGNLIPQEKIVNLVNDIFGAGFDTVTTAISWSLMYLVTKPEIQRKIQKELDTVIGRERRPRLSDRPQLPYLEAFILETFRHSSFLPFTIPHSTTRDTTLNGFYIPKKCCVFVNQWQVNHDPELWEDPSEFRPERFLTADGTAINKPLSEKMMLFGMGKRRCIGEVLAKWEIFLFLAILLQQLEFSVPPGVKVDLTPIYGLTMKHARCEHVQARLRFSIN

[25] = Half life in Sprague-Dawley rat at 1 mg/kg, iv or po measured after 0.033 to 24 hrs by LC/MS/MS analysis; conditions: in vivo
[26] = in vitro; conditions: cynomolgus monkey, cynomolgus monkey liver microsomes
[27] = biological target: T3, Estrogen receptor (Homo sapiens, UniProt P03372); conditions: mcf7
T3 sequence (P03372 whole entry): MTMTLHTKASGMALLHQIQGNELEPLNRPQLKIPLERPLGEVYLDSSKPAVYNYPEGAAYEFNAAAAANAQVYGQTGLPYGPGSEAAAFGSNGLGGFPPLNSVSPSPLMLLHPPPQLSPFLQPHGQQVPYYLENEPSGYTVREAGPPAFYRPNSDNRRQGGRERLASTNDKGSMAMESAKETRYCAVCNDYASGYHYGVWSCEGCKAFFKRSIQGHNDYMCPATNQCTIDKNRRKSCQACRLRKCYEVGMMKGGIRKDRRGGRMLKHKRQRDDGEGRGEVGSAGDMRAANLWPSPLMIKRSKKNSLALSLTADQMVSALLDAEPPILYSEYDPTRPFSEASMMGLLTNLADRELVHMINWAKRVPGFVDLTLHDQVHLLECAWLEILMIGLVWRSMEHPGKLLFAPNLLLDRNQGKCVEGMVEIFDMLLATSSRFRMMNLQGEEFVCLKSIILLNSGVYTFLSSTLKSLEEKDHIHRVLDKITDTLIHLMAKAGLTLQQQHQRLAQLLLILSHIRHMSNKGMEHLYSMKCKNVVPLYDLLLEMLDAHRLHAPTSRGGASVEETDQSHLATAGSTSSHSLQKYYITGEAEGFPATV
Description: Induction of estrogen receptor degradation in human MCF7 cells incubated for 4 hrs by Alexafluor -488 conjugate anti-mouse IgG staining based fluorescence method

[28] = in vivo; conditions: cynomolgus monkey, po, 1 mg/kg
[29] = biological target: T3, Estrogen receptor
Description: Antagonist activity at estrogen receptor in human T47D cells incubated for 18 hrs by ultra high sensitivity luminescence reporter gene assay

[30] = in vivo; conditions: cynomolgus monkey, po, 100 mg/kg
[31] = in vitro; conditions: rat, microsomes
[32] = biological target: Cav1.2 (Homo sapiens, UniProt Q13936); test: Inhibition of human Cav1.2 expressed in CHO cells at 10 uM by QPatch HT assay; conditions: CHO cells expressing human Cav1.2
[33] = Volume of distribution at steady state in cynomolgus monkey at 1 mg/kg, iv or po measured after 0.033 to 24 hrs by LC/MS/MS analysis; conditions: in vivo
[34] = biological target: CYP2C19 (Homo sapiens, UniProt P33261); test: Time dependent inhibition of CYP2C19 in human liver microsomes using (s)-mephenytoin as substrate incubated for 40 mins by LC-MS/MS analysis
[35] = Volume of distribution at steady state in Beagle dog at 1 mg/kg, iv or po measured after 0.033 to 24 hrs by LC/MS/MS analysis; conditions: in vivo
[36] = Half life in cynomolgus monkey at 1 mg/kg, iv or po measured after 0.033 to 24 hrs by LC/MS/MS analysis; conditions: in vivo
[37] = in vivo; conditions: beagle, dog, po, 1 mg/kg
[38] = in vivo; conditions: Sprague-Dawley, rat, po, 1 mg/kg
[39] = Kinetic solubility of compound at pH 7.4; conditions: buffer
[40] = in vitro; conditions: human, hepatocytes
[41] = in vitro; conditions: mouse, mouse hepatocytes
[42] = biological target: Voltage-gated inwardly rectifying potassium channel KCNH2 (Homo sapiens, UniProt Q12809); test: Inhibition of human ERG expressed in HEK293 cells incubated for 5 mins by patch clamp assay

T1 sequence (P08684 whole entry): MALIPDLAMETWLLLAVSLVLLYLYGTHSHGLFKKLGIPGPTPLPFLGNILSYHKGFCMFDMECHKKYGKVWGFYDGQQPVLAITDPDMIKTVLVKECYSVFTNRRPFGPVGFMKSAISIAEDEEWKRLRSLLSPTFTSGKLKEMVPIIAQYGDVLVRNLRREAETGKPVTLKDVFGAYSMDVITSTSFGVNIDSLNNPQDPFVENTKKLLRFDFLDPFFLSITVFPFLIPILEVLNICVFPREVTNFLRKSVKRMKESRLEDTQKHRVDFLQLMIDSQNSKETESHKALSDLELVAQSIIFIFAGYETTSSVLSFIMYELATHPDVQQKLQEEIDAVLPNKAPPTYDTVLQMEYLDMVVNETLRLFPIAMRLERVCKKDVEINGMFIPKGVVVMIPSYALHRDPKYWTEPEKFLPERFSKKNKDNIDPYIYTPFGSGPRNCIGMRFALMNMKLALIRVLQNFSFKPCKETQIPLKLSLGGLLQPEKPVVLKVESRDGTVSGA
Chain of Cav1.2 (Q13936 whole entry): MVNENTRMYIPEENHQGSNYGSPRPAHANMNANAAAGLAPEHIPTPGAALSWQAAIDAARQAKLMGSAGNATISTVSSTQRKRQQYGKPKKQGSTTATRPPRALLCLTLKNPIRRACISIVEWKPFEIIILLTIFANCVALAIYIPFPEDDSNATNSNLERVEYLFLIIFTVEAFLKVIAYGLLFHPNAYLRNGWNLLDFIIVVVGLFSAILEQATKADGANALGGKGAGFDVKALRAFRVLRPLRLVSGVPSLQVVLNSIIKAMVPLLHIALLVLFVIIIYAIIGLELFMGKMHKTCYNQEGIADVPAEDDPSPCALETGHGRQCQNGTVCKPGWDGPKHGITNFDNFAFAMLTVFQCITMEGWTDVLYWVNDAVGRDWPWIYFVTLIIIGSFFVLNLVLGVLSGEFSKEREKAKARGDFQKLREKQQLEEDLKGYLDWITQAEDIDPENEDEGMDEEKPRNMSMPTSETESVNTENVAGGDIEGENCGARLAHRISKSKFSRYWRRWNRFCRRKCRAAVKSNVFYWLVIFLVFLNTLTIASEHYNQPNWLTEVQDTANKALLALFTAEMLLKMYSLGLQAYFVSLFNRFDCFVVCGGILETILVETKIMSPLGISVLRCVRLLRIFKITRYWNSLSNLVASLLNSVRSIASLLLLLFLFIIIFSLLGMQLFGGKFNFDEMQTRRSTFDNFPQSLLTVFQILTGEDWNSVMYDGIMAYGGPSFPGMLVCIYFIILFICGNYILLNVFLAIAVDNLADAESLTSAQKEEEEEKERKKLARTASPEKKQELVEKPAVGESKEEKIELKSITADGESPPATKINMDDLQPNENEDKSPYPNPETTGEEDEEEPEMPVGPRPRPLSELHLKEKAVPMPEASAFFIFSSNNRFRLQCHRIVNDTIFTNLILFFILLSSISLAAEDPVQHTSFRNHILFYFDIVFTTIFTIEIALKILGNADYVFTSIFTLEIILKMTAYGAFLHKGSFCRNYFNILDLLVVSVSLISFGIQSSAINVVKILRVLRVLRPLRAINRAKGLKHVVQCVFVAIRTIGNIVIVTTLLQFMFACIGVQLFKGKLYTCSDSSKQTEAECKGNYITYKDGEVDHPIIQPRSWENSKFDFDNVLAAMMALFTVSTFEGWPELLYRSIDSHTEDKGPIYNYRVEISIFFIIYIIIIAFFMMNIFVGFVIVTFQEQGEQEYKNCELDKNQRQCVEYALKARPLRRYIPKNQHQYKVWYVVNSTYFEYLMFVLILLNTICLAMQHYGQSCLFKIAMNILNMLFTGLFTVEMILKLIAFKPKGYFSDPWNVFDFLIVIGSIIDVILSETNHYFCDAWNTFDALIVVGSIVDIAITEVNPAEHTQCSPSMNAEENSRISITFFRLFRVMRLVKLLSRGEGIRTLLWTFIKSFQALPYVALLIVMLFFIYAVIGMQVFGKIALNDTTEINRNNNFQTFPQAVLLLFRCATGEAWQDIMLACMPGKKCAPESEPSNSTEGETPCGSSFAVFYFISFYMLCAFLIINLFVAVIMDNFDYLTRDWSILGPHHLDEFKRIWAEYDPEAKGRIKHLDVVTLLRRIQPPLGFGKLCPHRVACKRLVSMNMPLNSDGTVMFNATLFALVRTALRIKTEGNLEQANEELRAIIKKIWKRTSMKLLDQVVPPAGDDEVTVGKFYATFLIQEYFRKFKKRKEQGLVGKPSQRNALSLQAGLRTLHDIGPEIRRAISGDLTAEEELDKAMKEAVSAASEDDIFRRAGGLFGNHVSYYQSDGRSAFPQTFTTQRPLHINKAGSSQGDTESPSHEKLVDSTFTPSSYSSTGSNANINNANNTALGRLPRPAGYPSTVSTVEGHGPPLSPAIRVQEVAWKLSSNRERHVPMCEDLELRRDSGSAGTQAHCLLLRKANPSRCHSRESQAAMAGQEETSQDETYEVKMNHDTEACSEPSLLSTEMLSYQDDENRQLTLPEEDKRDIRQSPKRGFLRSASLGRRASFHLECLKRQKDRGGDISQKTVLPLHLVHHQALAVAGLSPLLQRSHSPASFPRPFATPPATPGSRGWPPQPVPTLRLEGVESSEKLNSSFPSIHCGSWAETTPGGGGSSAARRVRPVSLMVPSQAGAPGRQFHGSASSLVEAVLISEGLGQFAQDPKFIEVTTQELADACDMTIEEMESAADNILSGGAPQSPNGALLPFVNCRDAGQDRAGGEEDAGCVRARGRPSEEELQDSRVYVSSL
Chain of Cytochrome P450 2C9 (P11712 whole entry): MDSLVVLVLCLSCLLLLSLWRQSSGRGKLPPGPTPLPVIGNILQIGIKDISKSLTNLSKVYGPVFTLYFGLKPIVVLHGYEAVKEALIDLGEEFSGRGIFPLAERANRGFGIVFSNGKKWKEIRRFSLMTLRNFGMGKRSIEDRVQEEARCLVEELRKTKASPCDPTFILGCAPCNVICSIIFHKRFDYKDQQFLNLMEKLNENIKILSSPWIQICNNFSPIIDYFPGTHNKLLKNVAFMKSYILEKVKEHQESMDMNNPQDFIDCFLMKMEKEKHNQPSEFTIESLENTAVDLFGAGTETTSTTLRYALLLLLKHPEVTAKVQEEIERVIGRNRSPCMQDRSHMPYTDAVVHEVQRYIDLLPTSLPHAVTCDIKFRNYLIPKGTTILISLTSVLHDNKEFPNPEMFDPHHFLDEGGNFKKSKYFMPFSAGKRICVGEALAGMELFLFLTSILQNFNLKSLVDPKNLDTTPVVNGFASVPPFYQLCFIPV
Chain of CYP2C9 (P11712 whole entry): as above
Chain of CYP2D6 (P10635 whole entry): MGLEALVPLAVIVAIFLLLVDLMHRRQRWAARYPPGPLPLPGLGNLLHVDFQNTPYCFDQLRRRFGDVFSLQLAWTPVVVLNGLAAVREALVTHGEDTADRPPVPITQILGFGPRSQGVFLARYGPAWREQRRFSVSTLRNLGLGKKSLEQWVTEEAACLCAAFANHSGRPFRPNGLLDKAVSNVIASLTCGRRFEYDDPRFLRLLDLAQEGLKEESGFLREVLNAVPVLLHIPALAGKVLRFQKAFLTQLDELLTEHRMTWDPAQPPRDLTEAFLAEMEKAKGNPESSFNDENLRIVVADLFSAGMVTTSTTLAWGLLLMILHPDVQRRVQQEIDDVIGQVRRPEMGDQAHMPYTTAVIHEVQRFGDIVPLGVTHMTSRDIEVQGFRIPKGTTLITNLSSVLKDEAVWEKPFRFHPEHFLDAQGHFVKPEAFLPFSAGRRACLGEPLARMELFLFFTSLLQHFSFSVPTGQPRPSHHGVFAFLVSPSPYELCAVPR
Chain of Cytochrome P450 2D6 (P10635 whole entry): as above
Chain of Cytochrome P450 2C19 (P33261 whole entry): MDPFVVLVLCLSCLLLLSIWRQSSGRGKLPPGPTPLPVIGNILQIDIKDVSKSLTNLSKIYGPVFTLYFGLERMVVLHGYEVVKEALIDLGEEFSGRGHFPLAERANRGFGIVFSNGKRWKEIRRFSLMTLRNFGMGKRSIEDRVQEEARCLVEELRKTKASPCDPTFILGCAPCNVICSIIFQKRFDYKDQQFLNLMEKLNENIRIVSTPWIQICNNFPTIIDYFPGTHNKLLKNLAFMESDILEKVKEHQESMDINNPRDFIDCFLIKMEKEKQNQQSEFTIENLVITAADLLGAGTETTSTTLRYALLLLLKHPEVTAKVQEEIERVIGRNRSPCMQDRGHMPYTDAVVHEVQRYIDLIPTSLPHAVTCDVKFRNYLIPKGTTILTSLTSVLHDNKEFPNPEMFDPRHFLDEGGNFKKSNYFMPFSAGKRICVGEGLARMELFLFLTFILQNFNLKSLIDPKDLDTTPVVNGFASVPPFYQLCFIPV

`C[C@@H]1Cc2c([nH]c3ccccc23)[C@@H](c2c(F)cc(NC3CN(CCCF)C3)cc2F)N1CC(F)(F)CO` [GIREDESTRANT] gave an inhibition at 10 µM [1] of 16.7%, a logD [2] of 2.9 and a Papp A→B at 3 h, 10 µM [3] of 3 ×10⁻⁶ cm/s. For the same compound, the half-life [4] was 24 h, the inhibition at 10 min [5] was 8.1% and the CLint scaled at 1 h, 1 µM [6] was 11 mL/min/kg. The clearance [7] was 3 mL/min/kg, the EC50 [8] was 0.4 nM and the IC50 [9] was greater than 10000 nM. For the same compound, the IC50 [10] was greater than 10000 nM, the bioavailability [11] was 65% and the inhibition at 10 min [12] was -0.9%. For the same compound, the clearance [13] was 19 mL/min/kg, the CLint scaled at 1 h [14] was less than 7.8 mL/min/kg and the Vd [15] was 15 L/kg. For the same compound, the inhibition at 0.5 h [16] was 19%, the inhibition at 10 min [17] was -4% and the CLint scaled at 1 h [18] was 23 mL/min/kg. The CLint scaled at 1 h [19] was 31 mL/min/kg, the CLint scaled at 1 h, 1 µM [20] was 52 mL/min/kg and the clearance [21] was 21 mL/min/kg. The IC50 [22] was greater than 10000 nM, the CLint scaled at 1 h, 1 µM [23] was 13 mL/min/kg and the inhibition at 0.5 h [24] was 1%. The half-life [25] was 8 h, the CLint scaled at 1 h, 1 µM [26] was 22 mL/min/kg and the DC50 [27] was 0.03 nM. It also gave a bioavailability [28] of 17%, an IC50 [29] of 0.05 nM and a bioavailability [30] of 29%. For the same compound, the CLint scaled at 1 h, 1 µM [31] was 19 mL/min/kg, the inhibition at 10 µM [32] was 15.7% and the Vd [33] was 9.4 L/kg. For the same compound, the inhibition at 40 min [34] was 1.2%, the Vd [35] was 5.1 L/kg and the half-life [36] was 7.3 h. For the same compound, the bioavailability [37] was 55%, the bioavailability [38] was 41% and the solubility kinetic [39] was 135 µM (≈ 70.5 µg/mL). The CLint scaled at 1 h [40] was 11 mL/min/kg, the CLint scaled at 1 h [41] was 33 mL/min/kg and the IC50 [42] was 6100 nM.
